These results are taken from article PMC8058344, “ARIH1 signaling promotes anti-tumor immunity by targeting PD-L1 for proteasomal degradation” (Nature Communications, 2021).

The term IC50 denotes the concentration that inhibits the measured activity by half. Low values mean greater potency in that assay, high ones weaker potency in that assay.

SMILES strings stand for the structures. A value given as a limit tells only on which side of the number the result lay.

One experiment has as its target CDK4 (Homo sapiens, UniProt P11802). Kind of experiment: In vitro kinase specificity profiling. It counts as biochemical.
For a further experiment, the system named is GSK3α. Kind of experiment: Immunoblots of p-GSK3α in H1975 cells. It counts as cell-based, human. To be noted: 10 μM, 24 h, compared to Gefitinib and AZD9291. The procedure:
For western blot analysis, cells were collected and washed with PBS, then lysed in radioimmunoprecipitation assay (RIPA) buffer (1% Triton X-100, 100 mM Tris-HCl pH 8.8, 100 mM NaCl, 0.5 mM EDTA). After incubation on ice for 30 min, the lysates were centrifuged at 12,000 × g for 10 min at 4 °C. The supernatant was collected and the protein concentration was measured by bicinchoninic acid reaction. Protein samples were added with 2× loading buffer and heated at 100 °C for 10 min, separated with SDS-polyacrylamide gel electrophoresis (SDS-PAGE), transferred onto polyvinylidene difluoride membranes, and blocked with 5% non-fat milk in Phosphate Buffered Saline with 0.1% Tween-20 (PBST) for 1 h at room temperature. The membranes were probed with the corresponding primary antibodies at 4 °C overnight and horseradish peroxidase-conjugated secondary antibodies at room temperature for 1 h. Signals were detected using chemiluminescence reagents (#4AW001-500, 4A649 Biotech, Co.).
Flag-EV Flag-PD-L1 Flag-EV Flag-PD-L1
43 Flag-PD-L1-TM Flag-PD-L1-TM
GSK3 concenseus phosphorylation motif:S/TXXX S/T EGFR 180 […]
Supplementary Figure 4. […] Quantification for the mean area (MA) of PD-L1/GSK3α (n = 50) or PD-L1/GSK3β (n = 44-50) PLA speckles are indicated by scattergram. […]
For orientation: A western blot detects proteins with antibodies after separation by electrophoresis.

CDK4, sequence (P11802 whole entry, species assumed): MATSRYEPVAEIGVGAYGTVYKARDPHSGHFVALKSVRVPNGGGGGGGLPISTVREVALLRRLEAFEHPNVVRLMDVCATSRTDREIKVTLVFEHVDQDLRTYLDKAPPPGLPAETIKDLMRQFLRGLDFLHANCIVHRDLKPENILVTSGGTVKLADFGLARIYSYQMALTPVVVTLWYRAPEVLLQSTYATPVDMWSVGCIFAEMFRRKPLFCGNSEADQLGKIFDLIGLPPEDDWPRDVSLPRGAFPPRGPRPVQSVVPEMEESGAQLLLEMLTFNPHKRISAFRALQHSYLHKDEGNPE
CDK4, sequence (P30281 whole entry partner, species assumed): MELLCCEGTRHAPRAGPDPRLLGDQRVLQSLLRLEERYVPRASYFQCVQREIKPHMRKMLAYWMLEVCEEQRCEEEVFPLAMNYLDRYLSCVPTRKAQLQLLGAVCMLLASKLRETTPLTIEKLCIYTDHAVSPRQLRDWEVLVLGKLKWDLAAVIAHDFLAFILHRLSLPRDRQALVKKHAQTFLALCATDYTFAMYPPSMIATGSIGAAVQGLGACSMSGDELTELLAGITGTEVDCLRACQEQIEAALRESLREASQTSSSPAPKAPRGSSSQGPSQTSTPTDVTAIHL

`C=CC(=O)Nc1cccc(Nc2nc(Nc3ccc(N4CCN(C)CC4)nc3OC)ncc2C(F)(F)F)c1` [ES-072]: the IC50 on CDK4 is over 10 µM. Moreover, the “activation effect on GSK3α (loss of the inhibitory phosphorylation of GSK3α)” value with GSK3α is listed as “higher activation effect”.
